Source: ChEMBL document CHEMBL1201862, “PubChem BioAssay data set” (2004)
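How tested: cells in 96-well plates exposed to compound for 48 hours at five concentrations. GI50 = concentration required for 50% inhibition of growth.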 Active and inactive are the calls of the source. Rule as the data show it: active = GI50 up to about 1.1 µM and inactive = higher.

Tests used:
Experiment in all cases: growth of human tumour cells (NCI), 48 h
[1] = system: LXFL 529
[2] = system: DLD-1
[3] = system: KM-20L2
[4] = system: XF498
[5] = system: DMS-114
[6] = system: DMS-273
[7] = system: HOP-18
[8] = system: SNB-78
[9] = system: RXF 631

Measured: GI50

O=S(=O)(O)C(F)(F)C(F)(F)C(F)(F)C(F)(F)F
inactive: [1] > 100 µM | [2] > 100 µM | [3] > 100 µM | [4] > 100 µM | [5] > 100 µM | [6] > 100 µM | [7] > 100 µM

c1ccc(SC(CCCCOC2CCCCO2)Sc2ccccc2)cc1 (centres undefined)
inactive: [8] 97.1 µM | [1] 41.1 µM | [2] > 100 µM | [4] > 100 µM | [5] 34.1 µM | [6] > 100 µM

Cc1cc2c(C)n(Cc3ccccc3Cl)nc2c(C(=O)O)c1C
inactive: [8] > 100 µM | [1] > 100 µM | [2] > 100 µM | [3] > 100 µM | [4] > 100 µM | [6] > 100 µM | [7] > 100 µM

O=C1c2ccccc2C2C1N2C(=O)C(F)(F)F (centres undefined)
inactive: [1] > 100 µM | [2] > 100 µM | [3] > 100 µM | [9] 94.6 µM | [4] > 100 µM | [5] 39.9 µM | [6] > 100 µM | [7] > 100 µM

CC(C)C(=S)N(C)O
inactive: [8] 61.2 µM | [1] 2.39 µM | [2] 2.73 µM | [3] 14.5 µM | [9] 11.7 µM | [5] 2.43 µM

COC(=O)CC1NC(=O)C1C(C)(OC)OC (centres undefined)
inactive: [1] > 100 µM | [2] > 100 µM | [3] > 100 µM | [9] > 100 µM | [4] > 100 µM | [5] > 100 µM | [6] > 100 µM

CC(=O)OC1COC(Nc2ccc(C(C)=O)cc2)C(OC(C)=O)C1OC(C)=O (centres undefined)
inactive: [8] > 100 µM | [1] > 100 µM | [2] > 100 µM | [3] > 100 µM | [9] > 100 µM | [5] > 100 µM | [6] > 100 µM | [7] > 100 µM

COc1ccc(/C=N/NC(=O)C2=C(N)N(c3ccccc3)C(=C(C#N)C#N)S2)cc1
inactive: [1] > 100 µM | [2] > 100 µM | [7] > 100 µM

Cc1ccc(S(=O)(=O)OCCn2cnc3nc(NC(=O)c4ccccc4)[nH]c(=O)c32)cc1
inactive: [8] > 100 µM | [1] 94.6 µM | [2] > 100 µM | [3] > 100 µM | [5] > 100 µM | [6] > 100 µM | [7] > 100 µM

COc1ccc2c3c([nH]c2c1[N+](=O)[O-])C(C)N(Cc1ccc([N+](=O)[O-])cc1)CC3 (centres undefined)
inactive: [8] 26.2 µM | [1] 5.7 µM | [3] 10.8 µM | [6] 6.24 µM

CCOC(=O)C1=C(OC(OCC)C(CC)[Se]c2ccccc2)CCCC1 (centres undefined)
inactive: [8] 22.3 µM | [1] 20.5 µM | [2] 17.5 µM | [3] 19.8 µM | [9] 10.2 µM | [4] 20 µM | [6] 15.1 µM | [7] 29.7 µM

CC(=O)O/N=C/c1ncccc1OC(C)=O
inactive: [1] > 100 µM | [2] > 100 µM | [3] > 100 µM | [9] > 100 µM | [4] > 100 µM | [5] > 100 µM | [6] > 100 µM | [7] > 100 µM

COC1OC2COC(c3ccccc3)OC2C(O)C1Br (centres undefined)
inactive: [8] > 100 µM | [1] > 100 µM | [2] > 100 µM | [3] > 10 µM | [4] > 100 µM | [6] > 100 µM | [7] > 100 µM

CC1=C(c2ccccc2)CON(c2ccccc2)C1
inactive: [8] 39.9 µM | [1] 29.1 µM | [3] 31.4 µM | [9] 24.8 µM | [4] 40.6 µM | [5] 31 µM

NCCCNC(=O)c1csc(NC(=O)c2csc(NC(=O)CCCN)n2)n1
inactive: [8] > 100 µM | [1] > 100 µM | [2] > 100 µM | [3] > 100 µM | [9] > 100 µM | [5] > 100 µM | [6] > 100 µM | [7] > 100 µM

CCOC(=O)CNC(=O)OCc1ccccc1
inactive: [8] > 100 µM | [1] > 100 µM | [2] > 100 µM | [9] > 100 µM | [4] > 100 µM | [5] > 100 µM | [6] > 100 µM

C1=CC=C2NCCC/N=C3/C=CC=CC=C3NCCC/N=C\2C=C1
inactive: [8] > 100 µM | [1] > 100 µM | [2] > 100 µM | [3] > 100 µM | [9] > 100 µM | [4] > 100 µM | [5] > 100 µM | [6] > 100 µM

Cc1cc2c(=O)cc(-c3ccc(Cl)cc3Cl)oc2c(C(=O)O)c1C
inactive: [8] > 100 µM | [1] > 100 µM | [2] > 100 µM | [3] > 100 µM | [4] > 100 µM | [5] > 100 µM | [7] > 100 µM

O=C1CC2Sc3ccccc3N=C2N1c1ccc(Cl)cc1Cl (centres undefined)
inactive: [8] 65.8 µM | [1] 84.9 µM | [2] 32.7 µM | [3] > 100 µM | [9] 65.3 µM | [4] > 100 µM | [5] 33 µM | [7] > 100 µM

CC(=O)Nc1ccc(C(=O)N2N=C(C)/C(=C/c3cccc([N+](=O)[O-])c3)C2=O)cc1
inactive: [8] > 100 µM | [2] > 100 µM | [5] > 100 µM | [6] > 100 µM | [7] > 100 µM

COc1cc(/C=C2\[C@H]3c4c(c(OC)c(C)c(OC)c4OC)CC(C(=O)N2Cc2ccccc2)N3C)c(OC)c(C)c1OC
inactive: [1] 19.4 µM | [2] 47.5 µM | [3] 20.3 µM | [6] 15.5 µM | [7] 23.7 µM

COC(=O)[C@@H]1C(=O)O[C@@H](c2ccc(OC)c(OC)c2OC)[C@@H]1C(=O)OC.COC(=O)[C@H]1C(=O)O[C@@H](c2ccc(OC)c(OC)c2OC)[C@@H]1C(=O)OC
inactive: [8] > 100 µM | [1] > 100 µM | [2] > 100 µM | [3] > 100 µM | [9] > 100 µM | [4] > 100 µM | [5] > 100 µM | [6] > 100 µM

CN1N=C2c3ccccc3CC[C@H]2C1c1cccc(O)c1 (some centres undefined)
inactive: [1] 99.5 µM | [2] > 100 µM | [3] > 100 µM | [4] > 100 µM | [5] > 100 µM | [6] > 100 µM

COc1cc2nc(Sc3c([N+](=O)[O-])ncn3C)[nH]c2cc1OC
inactive: [8] 34.8 µM | [1] 12.4 µM | [2] 14 µM | [3] 33.6 µM | [9] 1.74 µM | [4] 11 µM | [5] 11.6 µM | [6] 1.65 µM | [7] > 100 µM

COC1CC2C3/C(=N/Nc4ccc([N+](=O)[O-])cc4[N+](=O)[O-])CCC2(C)C3C1 (centres undefined)
inactive: [1] > 10 µM | [2] > 10 µM | [3] > 10 µM | [4] > 100 µM | [5] > 100 µM | [6] > 10 µM | [7] > 10 µM

CCCCCCCC[N+](C)(C)Cc1ccc(C[N+](C)(C)CCCCCCCC)cc1
inactive: [8] 44.3 µM | [1] 14.6 µM | [2] 35.4 µM | [3] 7.71 µM | [9] > 100 µM | [5] 8.67 µM | [6] 3.84 µM | [7] > 100 µM

O=C(O)CCCNS(=O)(=O)c1ccccc1
inactive: [1] > 100 µM | [2] > 100 µM | [3] > 100 µM | [4] 69.3 µM | [6] > 100 µM | [7] > 100 µM
